Measured values: patent EP1332756A2, “Compositions and methods for restoring a normal pattern of imprinting to cells” (priority 1996, dated 1998)
Read-outs that look alike come from different tables or passages of the source.

Columns and labels:
[1] = tested on: IGF2; assay: IGF2 methylation after 5-azaCdR treatment; assay type: cell-based, human; settings: data not shown
Method: (§1) Analysis of DNA Methylation. For quantitative analysis of DNA methylation, genomic DNA was prepared as described (Rainier et al. (1993) Nature 362:747-749), and Southern analysis of methylation of the H19 promoter CpG island was performed as described (Reik et al. (1994) Hum. Mol. Genet. 4:2379-2385). Filters were hybridized with the 1.8 kb Pst I fragment of H19, which detects imprint-specific methylation (Steenman et al. (1994) Nature Genet. 7:433-439). For analysis of allele-specific methylation, 1 µg DNA was digested with BamH I or with BamH I plus Hpa

[2] = Cytotoxicity of 24 hour 5-azaCdR treatment in cell culture; assay type: cell-based; settings: human, jeg-3 and colo-205 cells, Concentrations of 0.3-3.0 µM
Method: (§2) Cell Culture and Treatment With 5-azaCdR. JEG-3 human choriocarcinoma and COLO-205 human colon adenocarcinoma cell lines were obtained from ATTC. Cells were cultured in RPMI 1640, 10% fetal calf serum, 5% CO2, with antibiotics. 10^4-10^5 cells in 6 cm dishes were treated with 0.3-10 µM 5-azaCdR for 24 hours. Cultures were washed in Hank's buffered saline solution and grown to confluence. Concentrations of 0.3-3.0 µM caused minimal cytotoxicity (0-30%).

[3] = tested on: IGF2; settings: mouse cells with maternal disomy for chromosome 7 (Eversole-Cire et al.); cited from earlier work
[4] = tested on: H19; assay: Allele-specific methylation of H19 (Hpa II digestion, PCR, Alu I); assay type: cell-based, human; settings: Hpa II digestion before PCR (Fig. 2B)
Method: as §1
After digestion, enzymes were inactivated by heating to 100° for 10 min. 50 ng digested DNA was added to the PCR reaction mix in Buffer F (Invitrogen), containing primers HP1 (5'-TACAACC-ACTGCACTACCTG-3') and H3 (5'-[…]-3') (Hashimoto et al. (1995) Nat. Genet. 9:109-110). One initial cycle (94°C, 4 min.) was followed by 28 cycles of 94°C, 1 min., 60°C, 1 min., 72° C, 1 min. PCR products (227 bp) were digested with Alu I, electrophoresed on 3% Nusieve/1% agarose gels, transferred to Hybond-N+ membranes (Arnersham), and hybridized with an internal oligonucleotide probe HP2 (5'-[…]-3'), and then quantified with a PhosphorImager (Molecular Dynamics). […]

[5] = tested on: IGF2; assay: Allele-specific expression of IGF2 in tumor cells with LOI (RT-PCR, Apa I digestion); assay type: cell-based, human
Method: as §2
(§3) Analysis of Gene Expression. For quantitative analysis of gene expression, total RNA was isolated as described (Chomczynski, P. and Sacchi, N. (1987) Anal. Biochem. 162:156-159), and 10 µg was electrophoresed in 1.2% agarose gels containing formaldehyde, and was transferred to Hybond-N + membranes (Amersham) and hybridized as described with H19 and IGF2 probes (Steenrnan et al. (1994) Nature Genet. 7:433-439). Hybridization with GAPDH was used as a control for RNA loading. […] Each sample was analyzed in duplicate in the presence and absence of reverse transcriptase to exclude DNA contamination. Gels were blotted and hybridized with a ^32P-labeled internal specific oligonucleotide probe (Rainier et al. (1993) Nature 362:747-749), and quantified with a PhosphorImager (Molecular Dynamics).

[6] = tested on: H19; assay: Allele-specific expression of H19 in tumor cells with LOI (RT-PCR, Alu I digestion); assay type: cell-based, human; settings: JEG-3 cells
Method: as §2, §3

[7] = tested on: H19; assay: Quantitative H19 expression in tumor cells with LOI (Northern blot, PhosphorImager); assay type: cell-based; settings: Homo sapiens, 24 h, read-out: increase in H19 expression
Method: as §2
Analysis of Gene Expression. For quantitative analysis of gene expression, total RNA was isolated as described (Chomczynski, P. and Sacchi, N. (1987) Anal. Biochem. 162:156-159), and 10 µg was electrophoresed in 1.2% agarose gels containing formaldehyde, and was transferred to Hybond-N + membranes (Amersham) and hybridized as described with H19 and IGF2 probes (Steenrnan et al. (1994) Nature Genet. 7:433-439). Hybridization with GAPDH was used as a control for RNA loading. For analysis of allele-specific expression, 0.5 µg RNA was treated with DNase I (Boehringer Mannheim), heated to 95°C for 7 minutes, and RT-PCR was performed as described for both IGF2 and H19 (Rainier et al. (1993) Nature 362:747-749), although nested PCR using primers HP1 and HP2 (Hashimoto et al. (1995) Nat. Genet. 9:109-110) was performed for H19 analysis. PCR products were digested with either Apa I (for IGF2 analysis) or Alu I (for H19 analysis) as described (Tadokoro et al. (1991) Nucleic Acids Res. 19:6967), and electrophoresed on 4% Nusieve-agarose (3:1) gels. Each sample was analyzed in duplicate in the presence and absence of reverse transcriptase to exclude DNA contamination. Gels were blotted and hybridized with a ^32P-labeled internal specific oligonucleotide probe (Rainier et al. (1993) Nature 362:747-749), and quantified with a PhosphorImager (Molecular Dynamics).

[8] = tested on: IGF2; settings: normal human brain cells (Hu et al.); cited from earlier work
[9] = tested on: H19 promoter CpG island; assay: Southern analysis of methylation of the H19 promoter CpG island (Pst I and Sma I); assay type: cell-based, human
Method: as §1
In order to determine whether treatment with 5-azaCdR altered methylation of this imprint-specific region, cells were digested with Pst I and Sma I, as described (Reik et al. (1994) Hum. Mol. Genet. 3:1297-1301). Normal cells show approximately 50% methylation, since the paternal allele is methylated and the maternal allele is unmethylated (Steenman et al. (1994) Nature Genet. 7:433-439; Moulton et al. (1994) Nature Genet. 7:440-447; Reik et al. (1994) Hum. Mol. Genet. 3:1297-1301). Cells with LOI show increased methylation, reflecting abnormal methylation of the maternal allele (Steenman et al. (1994) Nature Genet. 7:433-439; Moulton et al. (1994) Nature Genet. 7:440-447; Reik et al. (1994) Hum. Mol. Genet. 3:1297-1301). […]

[10] = tested on: cancer cells; assay: Hollow fiber assay of in vivo cytotoxic effects; settings: threshold for referral for xenograft testing
From the text: The compounds were additionally tested for their in vivo cytotoxic effects on cancer cells, using a hollow fiber assay as described in Hollingshead et al. (1995) Life Sci. 57:131-141, herein incorporated by reference. […] Thus, several new potential effective chemotherapeutics were identified for tumors and/or doses not taught in the literature.

[11] = tested on: tumor cells with LOI; assay: In vitro effect of NCI lead compounds on LOI (allele ratio), saline as negative control; assay type: cell-based; settings: for effective concentration / Allele ratio 1.0=complete LOI: in vitro; for Allele ratio 1.0=complete LOI: at the effective concentration, saline 1.0
Method: Based on the results showing that 5-aza-2'-deoxycytidine can restore normal imprinting to tumor cells with LOI, an analysis was performed using the drug discovery program described in Weinstein et al. (1997) Science 275:343-349, herein incorporated by reference. […] The highest correlations were as follows: 127716, 619003, 626883, 624646, 145118, 1850512, 626884, 626886, 622810, 176889, 622616, 620358, 619948, 622461, 624645, 15309, 638737, 294734, 112152, 153174 204816, 79037, 628082, 620319 (NCI reference numbers). These are considered lead compounds to determine whether they will restore normal imprinting or could be chemically modified to do so.
As a first test of this approach, the in vitro effect of 12 of these compounds were analyzed with saline as a negative control.

[12] = tested on: Cells having LOI, (Group A); assay: NCI database search for compounds effective against cell lines with LOI (Group A) but not those without LOI (Group B); settings: lead compounds still to be tested

Molecule | total effectiveness score > 20 or an in vivo cell kill effect seen directly [10] | effective concentration [11] | Allele ratio 1.0=complete LOI [11] | other results
Nc1ncn([C@H]2C[C@H](O)[C@@H](CO)O2)c(=O)n1 [5-azaCdR, 5-aza-2'-deoxycytidine] | scored above the threshold for referral for xenograft testing |  |  | IGF2 methylation [1]: not affected; cytotoxicity at 24 h [2]: 0 to 30%; expression of the maternal IGF2 gene [3]: epigenetic activation of the normally silent maternal IGF2 gene; allele specificity of altered H19 methylation [4]: one allele was preferentially affected; allelic expression of IGF2 ([5]; COLO-205 colorectal carcinoma cells (data not shown)): a switch from biallelic to predominately monoallelic expression of IGF2; allelic expression of IGF2 ([5]; JEG-3 cells, single 24 hr treatment with increasing doses (0.3, 0.6, 1.0 µM)): unequal expression of the two IGF2 alleles, with preferential expression of the allele lacking the Apa I polymorphic site; allele-specific expression of H19 [6]: monoallelic expression of the allele containing the Alu I polymorphic site; fold induction at 1 µM ([7]; COLO-205 cells, 1.0 µM (data not shown)): 20; fold induction at 0.3 µM ([7]; JEG-3 cells, 0.3 µM): 30; fold induction at 1 µM ([7]; JEG-3 cells, 1.0 µM): 50; allelic expression of IGF2 [8]: switched IGF2 from a pattern of preferential expression of one allele to equal biallelic expression; changes in DNA methylation of the H19 CpG island ([9]; COLO-205 (data not shown)): reproducible; methylation of the H19 CpG island ([9]; after treatment with 0.3 or 1.0 µM (Fig. 2A), normal cells approximately 50%): approximately 50%
CC1=CC(=O)C(C)=CC1=O [compound 15309, phlorone] | scored above the threshold for referral for xenograft testing | 10^-3M | 1.3 | 
C/C=C1/C(=O)O[C@]23C=C[C@@H]4C(C(=O)OC)=CO[C@H](O[C@@H]12)[C@@H]43 [compound 112152, plumericine] | scored above the threshold for referral for xenograft testing | 10^-3M | 1.2 | 
Nc1ccccc1 [compound 176889, benzenamine] |  |  | 3.7 | alteration in imprinting and/or cytotoxic effects ([11]; additional drugs tested): at least some alteration in imprinting and/or cytotoxic effects
C#CC[C@@]12CC(=O)C[C@@H]1CCC1(C2)OCCO1.C#CC[C@]12CC(=O)CC[C@H]1CC(=O)C2 [compound 619948] |  | 10^-4M | 1.8 | 
O=C1ON(Cc2ccccc2)C(c2ccccc2)N1c1ccccc1 (stereo not drawn) [compound 624645] |  | 10^-4M | 1.8 | 
COc1nc(NC2OC(CO)C(O)C(O)C2O)c(N)c(=O)[nH]1 (stereo not drawn) [compound 624646] | scored above the threshold for referral for xenograft testing | 10^-4M | 2.2 | 
CC(=O)O[C@@H]1[C@@H](C)/C=C/C(C)(C)[C@H](OC(C)=O)C[C@@H](OC(C)=O)/C(C)=C/[C@H]2[C@@H](OC(=O)c3ccccc3)[C@@H](C)C[C@]12OC(C)=O [compound 666860, euphornin D] |  |  |  | Predicted concentration [12]: 10^-4M
CC(C)/C(Cl)=N\OC(=O)NNc1ccccc1 [compound 682841] |  |  |  | Predicted concentration [12]: 10^-4M
Blue Platinum uracil [compound 180512] |  | 10^-2M | 45.0 | alteration in imprinting and/or cytotoxic effects [11]: at least some alteration in imprinting and/or cytotoxic effects
Methyl-13-hydroxy-15-oxokaurenoate [compound 620358] | scored above the threshold for referral for xenograft testing | 10^-4M | 2.6 | alteration in imprinting and/or cytotoxic effects ([11]; additional drugs tested): at least some alteration in imprinting and/or cytotoxic effects
aspiculamycin HCL [200692-A] |  |  |  | Predicted concentration [12]: 10^-2M
cis-CCNU [compound 153174] |  | 10^-4M | 1.6 | 
gndimacrin [252940-S] |  |  |  | Predicted concentration [12]: 10^-4M
lankacyclin [compound 145118] |  | 10^-4M | 1.8 | alteration in imprinting and/or cytotoxic effects ([11]; additional drugs tested): at least some alteration in imprinting and/or cytotoxic effects
